Assay results published in patent publication US20250188030A1, “Biphenyl and Phenylpyridine Compounds” (Pfizer Inc., priority 2023, published 2025).
pIC50, pKi: −log10 of the molar value. Like-named read-outs stand apart in the source and are kept apart here.

Legend:
KAT2A = KAT2A (Homo sapiens (Human), UniProt Q92830); test: KAT2A acetyltransferase biochemical assay (RapidFire mass spectrometry, AcCoA to CoA)
H3K9AC (HT1080 cells) = test: H3K9AC Sandwich ELISA Assay in HT1080 cells (KAT2A primary cell-based screening assay); design: species or system Human
Method: Human fibrosarcoma cell line HT1080 was obtained from American Type Culture Collection (ATCC), Manassas, VA USA, Cat. HT-1080 (ATCC® CCL-121™). Cells were cultured in MEM (Thermo Fisher Scientific/Gibco Life Technologies Cat. #11-095-080) plus 10% (v/v) FBS (Thermo Fisher Scientific/Gibco Life Technologies Cat. #26140-079) and 1% Penicillin-Streptomycin (Thermo Fisher Scientific/Gibco Life Technologies Cat. #15070063) at 37° C. in 5% CO2.
HT1080 cells were trypsinized, cell viability count performed, and cells suspended in complete media at 100,000 cells/ml. Cells were seeded (100 μl/well) into Greiner Bio-One CELLSTAR 96-well polystyrene flat bottom cell culture microplate (Thermo Fisher Scientific Cat. #07-000-162) at a density of 10,000 cells/well. Cells were incubated for 16 hours at 37° C. at 5% CO2. Compound dilution plates were prepared in 96-well, clear U-bottom, polypropylene plates (Corning 3365) in 100% DMSO at 10 mM stock concentration in duplicate, using 10-point serial dilution (1:3). Compounds were diluted to 1:200 in growth medium and 25 μl from intermediate compound plates were added to each well of the cell plates using a Beckman FX liquid handling system such that the highest compound concentration tested was 10 μM final, with a 0.1% final DMSO concentration in the total volume of 125 μl. Plates were incubated for 24 hours at 37° C. and 5% CO2. Plates were centrifuged at 2500 rpm for 5 minutes and medium was removed. 100 μL 0.4N HCL (Thermo Fisher Scientific Cat #SA56-1) was added to each well and plates were shaken for 60 minutes at 4C to lyse cells. 38ul 0.4N Sodium phosphase dibasic pH12.5 (Thermo Fisher Scientific Cat #S375-212) containing 2 mM Sodium Butyrate (Millipore TR1008G) and 3 mM Phenylmethanesulfonyl-fluoride (Sigma 93482) was added to each well to neutralize lysates.
Cell lysate plates were mixed for 5 minutes at room temperature on shaker and immediately frozen at −80C overnight. Cell lysates were thawed and 50 μL/well was transferred to ELISA plates (Total Histone H3 mouse (Cell Signaling Technology Cat #14269) mAb-coated Corning 1×8 strip-well, white, 96-well plates (Corning 2485)). After 2 hours room temperature incubation, plates were washed six times with PBS/0.05% Tween Wash Buffer using a BioTek plate washer. 50 μL of Histone H3K9AC rabbit detection mAb (Cell Signaling Technology Cat #9649S) diluted 1:1000 in blocking buffer (Thermo Fisher Scientific Cat #37542) was added to each well and incubated for 2 hours at room temperature. After washing, 50 μL anti-rabbit IgG, HRP-Linked antibody (Cell Signaling Technology Cat #7074) diluted 1:1000 in blocking buffer was added to each well and incubated for 60 minutes at room temperature. Following incubation, plates were washed as described above. 50 μL of luminescent GLO substrate reagent (R&D System Cat #DY993) was added to each well and incubated for 10 minutes at room temperature. Plates were read on the PHERAstar plate reader using the 96-well with Luminescent reading mode. IC50 values were calculated using a four-parameter fit with GraphPad Prism version 9.5.1 or in-house modified IDBS ActivityBase data analyzing package.

[1] = read-out: KAT2A Ki at 1 μM AcCoA, 5 μM H3 1-21 peptide, 0.5 nM KAT2A, 90-minute reaction
[2] = KAT2A Ki at 1 μM AcCoA, 5 μM H3 1-21 peptide, 0.5 nM KAT2A, 90-minute reaction
[3] = Homo sapiens, HT-1080, H3K9AC sandwich ELISA

Chain of KAT2A (Q92830 whole entry): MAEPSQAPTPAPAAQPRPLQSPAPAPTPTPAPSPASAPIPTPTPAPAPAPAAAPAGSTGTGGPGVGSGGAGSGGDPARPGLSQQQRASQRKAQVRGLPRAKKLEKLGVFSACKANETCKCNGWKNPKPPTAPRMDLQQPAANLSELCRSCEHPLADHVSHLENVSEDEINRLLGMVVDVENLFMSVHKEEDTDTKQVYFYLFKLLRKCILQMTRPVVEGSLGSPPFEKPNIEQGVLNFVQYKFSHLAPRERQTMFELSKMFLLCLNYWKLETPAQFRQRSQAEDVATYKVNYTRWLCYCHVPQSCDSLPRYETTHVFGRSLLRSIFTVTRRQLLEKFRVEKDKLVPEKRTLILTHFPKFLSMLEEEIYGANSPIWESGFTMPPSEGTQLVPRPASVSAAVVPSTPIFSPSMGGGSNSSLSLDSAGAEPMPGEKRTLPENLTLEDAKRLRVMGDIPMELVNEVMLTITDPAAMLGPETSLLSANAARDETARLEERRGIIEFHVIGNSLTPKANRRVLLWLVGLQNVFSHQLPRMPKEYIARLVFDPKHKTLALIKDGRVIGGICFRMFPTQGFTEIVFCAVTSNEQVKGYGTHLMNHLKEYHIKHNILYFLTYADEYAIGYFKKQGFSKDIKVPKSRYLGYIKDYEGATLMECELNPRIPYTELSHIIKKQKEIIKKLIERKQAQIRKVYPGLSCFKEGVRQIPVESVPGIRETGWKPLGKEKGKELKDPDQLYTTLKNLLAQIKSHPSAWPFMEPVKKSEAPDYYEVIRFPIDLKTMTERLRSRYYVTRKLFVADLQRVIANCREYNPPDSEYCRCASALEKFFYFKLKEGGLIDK

Row | SMILES | pKi (KAT2A; [1]) | pIC50 (H3K9AC (HT1080 cells); H3K9AC sandwich ELISA) | pKi (KAT2A; [2]) | pIC50 (H3K9AC (HT1080 cells); [3])
1 | CC[C@](C)(C(=O)O)c1ccc(O[C@@H]2CC[C@@H](NC(=O)[C@]3(F)CNC4(CCC4)C3)C2)c(-c2cccc(F)c2C2CCC2)c1 (single isomer, unassigned) [Example A10] | < 6.00 | < 6.00 | – | –
2 | CC[C@](C)(C(=O)O)c1ccc(O[C@@H]2CC[C@@H](NC(=O)[C@]3(F)CNC4(CCC4)C3)C2)c(-c2cccc(F)c2C2CCC2)c1 (single isomer, unassigned) [Example A11] | < 6.00 | < 6.00 | – | –
3 | CC1(C)C[C@@](F)(C(=O)N[C@@H]2CC[C@@H](Oc3ccc(C(=O)O)cc3-c3cccc(F)c3C3CCC3)C2)CN1 (single isomer, unassigned) [Example A13] | 7.02 | < 6.00 | – | –
4 | CC1(C)CNC[C@](F)(C(=O)N[C@@H]2CC[C@@H](Oc3ccc(C(C)(C)C(=O)O)cc3-c3cccc(F)c3C3CCC3)C2)C1 (single isomer, unassigned) [Example A15] | < 6.00 | 6.53 | – | –
5 | O=C(O)Cc1ccc(O[C@@H]2CC[C@@H](NC(=O)[C@@]3(F)CNC4(CCCC4)C3)C2)c(-c2cccc(F)c2C2CCC2)c1 (single isomer, unassigned) [Example A26] | 7.54 | 7.02 | – | –
6 | CC(C)(C(=O)O)c1ccc(O[C@@H]2CC[C@@H](NC(=O)[C@@]3(F)CNCC4(CCC4)C3)C2)c(-c2cccc(F)c2C2CCC2)c1 (single isomer, unassigned) [Example A28] | 8.85 | 7.27 | – | –
7 | O=C(O)c1ccc(O[C@@H]2CC[C@@H](NC(=O)[C@@]3(F)CNCC4(CCC4)C3)C2)c(-c2cccc(F)c2C2CCC2)c1 (single isomer, unassigned) [Example A33] | < 7.00 | < 6.00 | – | –
8 | O=C(O)c1ccc(O[C@@H]2CC[C@@H](NC(=O)[C@@]3(F)CNC4(CCCC4)C3)C2)c(-c2cccc(F)c2C2CCC2)c1 (single isomer, unassigned) [Example A35] | < 7.00 | < 6.00 | – | –
9 | CC1(C)CNC[C@](F)(C(=O)N[C@@H]2CC[C@@H](Oc3ccc(C(=O)O)cc3-c3cccc(F)c3C3CCC3)C2)C1 (single isomer, unassigned) [Example A37] | 10.70 | < 6.00 | – | –
10 | CCS(=O)(=O)NC(=O)C(C)(C)c1ccc(O[C@@H]2CC[C@@H](NC(=O)C3(F)CNC4(CCC4)C3)C2)c(-c2cccc(F)c2C2CCC2)c1 (single isomer, unassigned) [Example B1] | – | 6.25 | 7.09 | –
11 | CC(C)(C(=O)NS(=O)(=O)N1CC(F)C1)c1ccc(O[C@@H]2CC[C@@H](NC(=O)[C@]3(F)CNC4(CCC4)C3)C2)c(-c2cccc(F)c2C2CCC2)c1 (single isomer, unassigned) [Example B6] | 6.13 | – | – | < 6.00
12 | CN1C[C@@](F)(C(=O)N[C@@H]2CC[C@@H](Oc3ccc(C(C)(C)C(=O)NS(C)(=O)=O)cc3-c3cccc(F)c3C3CCC3)C2)CC1(C)C (single isomer, unassigned) [Example B8] | 6.15 | – | – | < 6.00
13 | CC(C)(C(=O)NS(=O)(=O)N1CC(F)(F)C1)c1ccc(O[C@@H]2CC[C@@H](NC(=O)[C@]3(F)CNC4(CCC4)C3)C2)c(-c2cccc(F)c2C2CCC2)c1 (single isomer, unassigned) [Example B10] | 9.82 | – | – | 7.80
14 | CC(C)S(=O)(=O)NC(=O)C(C)(C)c1ccc(O[C@@H]2CC[C@@H](NC(=O)[C@@]3(F)CNC4(CCCC4)C3)C2)c(-c2cccc(F)c2C2CCC2)c1 (single isomer, unassigned) [Example B24] | 10.05 | – | – | 9.05
15 | CCS(=O)(=O)NC(=O)C(C)(C)c1ccc(O[C@@H]2CC[C@@H](NC(=O)[C@@]3(F)CNCC4(CCC4)C3)C2)c(-c2cccc(F)c2C2CCC2)c1 (single isomer, unassigned) [Example B32] | 9.07 | 7.74 | – | –

Now from value to molecule:

Row | pKi (KAT2A; [1]) | pIC50 (H3K9AC (HT1080 cells); H3K9AC sandwich ELISA) | pKi (KAT2A; [2]) | pIC50 (H3K9AC (HT1080 cells); [3]) | SMILES
16 | 7.87 | – | – | 6.85 | CC1(C)C[C@](F)(C(=O)N[C@@H]2CC[C@@H](Oc3ccc(C(C)(C)C(=O)NS(=O)(=O)N4CCC4)cc3-c3cccc(F)c3C3CCC3)C2)CN1 (single isomer, unassigned) [Example C8]
17 | 7.63 | – | – | 6.03 | CC(C)(C(=O)NS(C)(=O)=O)c1ccc(O[C@@H]2CC[C@@H](NC(=O)[C@@]3(F)CNC4(CCC4)C3)C2)c(-c2cccc(F)c2C2CC2)c1 (single isomer, unassigned) [Example C13]
18 | 5.90 | – | – | < 6.00 | CC(C)(C(N)=O)c1ccc(O[C@@H]2CC[C@@H](NC(=O)[C@]3(F)CNC4(CCC4)C3)C2)c(-c2cccc(F)c2C2CCC2)c1 (single isomer, unassigned) [Example C15]
19 | 8.35 | – | – | 7.39 | CCS(=O)(=O)NC(=O)Cc1ccc(O[C@@H]2CC[C@@H](NC(=O)[C@@]3(F)CNC4(CCC4)C3)C2)c(-c2cccc(F)c2C2CCC2)c1 (single isomer, unassigned) [Example C32]
20 | – | 7.40 | 8.39 | – | CC(C)S(=O)(=O)NC(=O)Cc1ccc(O[C@@H]2CC[C@@H](NC(=O)[C@]3(F)CNC4(CCC4)C3)C2)c(-c2cccc(F)c2C2CCC2)c1 (single isomer, unassigned) [Example C41]
21 | < 7.00 | < 6.00 | – | – | CCc1c(F)cccc1-c1cc(C(C)(C)C(=O)NS(=O)(=O)C(C)C)ccc1O[C@@H]1CC[C@@H](NC(=O)[C@@]2(F)CNCC(C)(C)C2)C1 (single isomer, unassigned) [Example C44]
22 | < 7.00 | < 6.00 | – | – | CCc1c(F)cccc1-c1cc(CC(=O)NS(=O)(=O)C2(C)CC2)ccc1O[C@@H]1CC[C@@H](NC(=O)[C@@]2(F)CNCC(C)(C)C2)C1 (single isomer, unassigned) [Example C56]
23 | 7.92 | 6.36 | – | – | CCS(=O)(=O)NC(=O)Cc1ccc(O[C@@H]2CC[C@@H](NC(=O)[C@@]3(F)CNCC4(CCC4)C3)C2)c(-c2cccc(F)c2C2CCC2)c1 (single isomer, unassigned) [Example C59]
24 | 10.40 | – | – | 9.22 | CC1(S(=O)(=O)NC(=O)Cc2ccc(O[C@@H]3CC[C@@H](NC(=O)[C@@]4(F)CNC5(CCCC5)C4)C3)c(-c3cccc(F)c3C3CCC3)c2)CC1 (single isomer, unassigned) [Example C69]
25 | 10.40 | 7.13 | – | – | CCS(=O)(=O)NC(=O)Cc1ccc(O[C@@H]2CC[C@@H](NC(=O)[C@@]3(F)CNC4(CCCC4)C3)C2)c(-c2cccc(F)c2C2CCC2)c1 (single isomer, unassigned) [Example C70]
26 | 11.00 | 9.00 | – | – | CCS(=O)(=O)NC(=O)Cc1ccc(O[C@@H]2CC[C@@H](NC(=O)[C@@]3(F)CNC4(CCCC4)C3)C2)c(-c2cccc(F)c2C2CCC2)c1 (single isomer, unassigned) [Example C71]
27 | 7.34 | < 6.00 | – | – | CCc1c(F)cccc1-c1cc(CC(=O)NS(=O)(=O)C(C)C)ccc1O[C@@H]1CC[C@@H](NC(=O)[C@@]2(F)CNC3(CCCC3)C2)C1 (single isomer, unassigned) [Example C72]
28 | 10.30 | 8.32 | – | – | CCc1c(F)cccc1-c1cc(CC(=O)NS(=O)(=O)C(C)C)ccc1O[C@@H]1CC[C@@H](NC(=O)[C@@]2(F)CNC3(CCCC3)C2)C1 (single isomer, unassigned) [Example C73]
29 | < 7.00 | < 6.00 | – | – | CC(C)c1ccccc1-c1cc(CC(=O)NS(=O)(=O)C(C)C)ccc1O[C@@H]1CC[C@@H](NC(=O)[C@@]2(F)CNCC(C)(C)C2)C1 (single isomer, unassigned) [Example C74]
30 | 9.77 | 8.35 | – | – | CC(C)c1ccccc1-c1cc(CC(=O)NS(=O)(=O)C(C)C)ccc1O[C@@H]1CC[C@@H](NC(=O)[C@@]2(F)CNCC(C)(C)C2)C1 (single isomer, unassigned) [Example C75]
